Here are results for 29 compounds from ChEMBL document CHEMBL3217450, “Structure based virtual screening for discovery of novel human neutrophil elastase inhibitors” (Medchemcomm, 2012).

The target in one data set is T1, Neutrophil elastase (Homo sapiens, UniProt P08246).
T1 sequence (P08246 whole entry): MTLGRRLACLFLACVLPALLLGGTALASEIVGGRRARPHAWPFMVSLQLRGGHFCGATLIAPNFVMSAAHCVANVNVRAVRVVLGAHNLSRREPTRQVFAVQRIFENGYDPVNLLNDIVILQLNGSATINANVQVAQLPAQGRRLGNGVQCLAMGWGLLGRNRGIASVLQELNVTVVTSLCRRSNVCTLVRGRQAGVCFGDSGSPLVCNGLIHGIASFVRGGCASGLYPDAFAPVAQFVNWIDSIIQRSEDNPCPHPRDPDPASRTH
Briefly: Inhibition of human neutrophil elastase using N-MeOSuc-Ala-Ala-Pro-Val-p-nitroanilide as substrate incubated for 30 mins prior to substrate addition measured for 60 mins by chromogenic 96 well microplate assay.

Data set [1] can be described thus: Metabolic stability in Sprague-Dawley rat pooled liver microsomes assessed as compound remaining after 2 days by HPLC analysis in presence of NADPH generating system. The class given is ADME. The conditions noted are these: read-out: Stability. (In general: Liver microsomes are a subcellular fraction often used to study metabolism.)
For the next data set, the target named is Pancreatic elastase (Sus scrofa, UniProt P08419+P00772). In words: Inhibition of porcine pancreatic elastase using MeO-Suc-Ala-Ala-Pro-Val-AMC as substrate incubated for 30 mins prior to substrate addition measured for 30 mins by incubation method based fluorescence analysis. In kind it is protein assay.
A short description of data set [2]: Chemical stability of the compound in phosphate buffer at pH 7.4 assessed as compound remaining at 100 uM after 2 days by HPLC analysis. The class given is physicochemical. The conditions noted are these: read-out: Stability.
For data set [3], the target named is T2, Neutrophil elastase (Homo sapiens) (UniProt P08246).
T2 sequence (whole entry): T1 sequence (P08246 whole entry)
In words: Competitive inhibition of human neutrophil elastase assessed as product formation using N-MeOSuc-Ala-Ala-Pro-Val-p-nitroanilide as substrate measured for 120 mins by chromogenic 96 well microplate assay.

The target in the next data set is T3, Cathepsin G (Homo sapiens, UniProt P08311).
T3 sequence (P08311 whole entry): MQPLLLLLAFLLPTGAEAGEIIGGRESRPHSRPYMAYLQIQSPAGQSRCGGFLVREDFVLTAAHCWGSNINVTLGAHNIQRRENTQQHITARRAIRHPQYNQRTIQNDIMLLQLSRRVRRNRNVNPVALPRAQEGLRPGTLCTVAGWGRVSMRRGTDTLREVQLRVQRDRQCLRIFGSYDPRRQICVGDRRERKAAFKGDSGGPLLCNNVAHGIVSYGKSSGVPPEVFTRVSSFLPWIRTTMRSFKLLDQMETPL
Briefly: Inhibition of cathepsin G in human neutrophil using Suc-Ala-Ala-Pro-Phe-p-nitroanilide as chromogenic substrate incubated for 30 mins prior to substrate addition measured for 30 mins by progress curve method.

Data set [4] in a line: Cytotoxicity against mouse NIH/3T3 cells after 24 hrs. The class given is cell-based. As to conditions: NIH3T3, 24 h.
The target in a further data set is T4, Myeloblastin (Homo sapiens, UniProt P24158).
T4 sequence (P24158 whole entry): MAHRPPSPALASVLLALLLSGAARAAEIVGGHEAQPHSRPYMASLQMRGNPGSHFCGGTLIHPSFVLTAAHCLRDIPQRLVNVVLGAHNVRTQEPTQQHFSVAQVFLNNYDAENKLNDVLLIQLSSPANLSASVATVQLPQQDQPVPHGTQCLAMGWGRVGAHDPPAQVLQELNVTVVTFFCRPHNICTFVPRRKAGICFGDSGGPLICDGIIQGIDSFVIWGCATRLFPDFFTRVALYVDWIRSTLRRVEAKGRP
In words: Inhibition of proteinase 3 in human neutrophil using N-MeOSuc-Ala-Ala-Pro-Val-p-nitroanilide as chromogenic substrate measured for 60 mins by chromogenic assay.

The next data set deals with HEK-293T. In words: Cytotoxicity against human HEK293T cells after 24 hrs. In kind it is cell-based.
Data set [5] in a line: Metabolic stability in Sprague-Dawley rat pooled liver microsomes assessed as compound remaining after 2 days by HPLC analysis in absence of NADPH generating system. In kind it is ADME. The conditions noted are these: read-out: Stability.
Data set [6] can be described thus: Metabolic stability in human plasma assessed as compound remaining after 2 days by HPLC analysis. The conditions noted are these: read-out: Stability. In kind it is ADME, cell-free.
Data set [7] is described as follows: Chemical stability of the compound in phosphate buffer at pH 7.4 assessed as compound remaining at 50 uM after 2 days by HPLC analysis. In kind it is physicochemical. As to conditions: read-out: Stability.

Structures are written as SMILES. Residues, ends and D or L forms follow the SMILES beside them. *: point of attachment. MeOSuc = COC(=O)CCC(=O)*; CH2Cl = ClC* Some results are limits rather than exact numbers.

For the compound `O=C(CSc1nnc2scc(-c3ccc(Cl)cc3)n12)NCc1cccnc1`, on Neutrophil elastase (read-out: IC50), the IC50 is over 100 µM.

As to `Nc1nnc(SC(C(=O)Nc2cc(Cl)cc(Cl)c2)c2ccccc2)[nH]1` (stereo unspecified), the remaining at 48 h in [1], in data set [5] and in data set [6] was over 80% each time. Further, the IC50 on Pancreatic elastase was over 139 µM; on Neutrophil elastase (read-out: IC50), 26.9 µM; on Cathepsin G it was over 139 µM; in data set [4] it was over 139 µM; on Myeloblastin it was over 139 µM; with HEK-293T it was over 139 µM. Moreover, in data set [2], the remaining at 48 h, 100 µM is over 80%. The inhibition entry in data set [3] was “Dose-dependent effect”.

Turning to `COc1ccc(CCNC(=O)C(Sc2ccccn2)c2ccccc2)cc1OC` (stereo unspecified), at Neutrophil elastase (read-out: IC50), the IC50 is over 100 µM.

Take `Nc1c(C(=O)NCc2cccs2)c2nc3ccccc3nc2n1/N=C/c1ccccn1`: the IC50 at Neutrophil elastase (read-out: IC50) amounted to 17.6 µM.

Regarding `O=C(Oc1coc(CSc2nnc(NC(=O)C3CC3)s2)cc1=O)c1cccc(F)c1`, the IC50 on Pancreatic elastase was over 134 µM; on Neutrophil elastase (read-out: IC50), 18.4 µM; against Cathepsin G, over 134 µM; in data set [4], over 134 µM; against Myeloblastin, over 134 µM; in the data set on HEK-293T, over 134 µM. Moreover, the remaining at 48 h, 50 µM in data set [7] is over 80%. Moreover, the inhibition result in data set [3] was “Dose-dependent effect”.

Take `COc1ccc(C(=O)CSc2nnc(COc3ccccc3)n2Cc2ccccc2)cc1`: on Neutrophil elastase, the IC50 result was “ND(Insoluble)”.

On to `COC(=O)C(CSCc1ccccc1)NC(=O)CSc1nc2ccccc2[nH]1` (stereo unspecified), for which the IC50 on Neutrophil elastase (read-out: IC50) was over 100 µM.

For the compound `Cc1ccc(-n2c(COc3ccc4ccccc4c3)nnc2SCC(=O)O)cc1`, at Neutrophil elastase (read-out: IC50), the IC50 was over 100 µM.

As to `Cc1occc1-c1nnc(SCC(=O)NCCc2ccccc2)n1C(C)c1ccccc1` (stereo unspecified), the IC50 at Neutrophil elastase (read-out: IC50) was over 100 µM.

Turning to `COC(=O)CCC(=O)N[C@@H](C)C(=O)N[C@@H](C)C(=O)N1CCC[C@H]1C(=O)N[C@@H](C)C(=O)CCl` (MeOSuc-AAPA-CH2Cl), the IC50 on Neutrophil elastase (read-out: IC50) turned out to be 20.3 µM.

For `NC(=O)CSc1nnc2c3c4c(sc3nc(SCc3ccccc3)n12)CCC4`, the IC50 at Neutrophil elastase (read-out: IC50) is over 100 µM.

As to `O=C(CSc1nnc(C2CC2)n1Cc1ccccc1)NCc1ccccc1`, at Neutrophil elastase (read-out: IC50), the IC50 is over 100 µM.

On to `Oc1ccc2c(c1)Oc1ncn3nc(CO/N=C/c4ccccc4)nc3c1C2c1ccccc1` (stereo unspecified), for which the IC50 on Neutrophil elastase (read-out: IC50) was over 100 µM.

For the compound `O=C(O)CSc1nnc(CSc2nc3ccccc3s2)n1-c1ccccc1`, at Neutrophil elastase (read-out: IC50), the 50% inhibitory concentration (IC50) is over 100 µM.

As for `CCC(Sc1nc(-c2ccccc2)cc(-c2ccccc2)n1)C(=O)Nc1nnc(C)s1` (stereo unspecified), the IC50 entry on Neutrophil elastase was “ND(Insoluble)”.

In the case of `Cc1sc(NC(=O)CSc2nnc(Cc3ccccc3)n2C)nc1-c1ccccc1`, the half-maximal inhibitory concentration (IC50) result against Neutrophil elastase is “ND(Insoluble)”.

In the case of `O=C(CSc1nnc(Cc2ccccc2)n1Cc1ccccc1)NCc1ccco1`, the IC50 at Neutrophil elastase (read-out: IC50) was over 100 µM.

For `CCC(N)c1nc(C(=O)NC(Cc2ccccc2)C(=O)OCc2ccccc2)co1` (stereo unspecified), the IC50 at Neutrophil elastase (read-out: IC50) is over 100 µM.

In the case of `COc1ccc(-n2c(COc3ccc4ccccc4c3)nnc2SCC(N)=O)cc1`, the concentration for half-maximal inhibition (IC50) on Neutrophil elastase (read-out: IC50) was over 100 µM.

Turning to `CCOC(=O)C(CSCc1ccccc1)NC(=O)c1coc(-c2ccc(N)cc2)n1` (stereo unspecified), the IC50 on Neutrophil elastase (read-out: IC50) came out at 32.1 µM.

For `O=C(NCc1ccccc1)c1ccc2nc(-c3ccccn3)c(-c3ccccn3)nc2c1`, the half-inhibitory concentration (IC50) on Neutrophil elastase (read-out: IC50) was over 100 µM.

Consider `O=C(Cc1cn2ccsc2n1)N/N=C/c1cn(-c2ccccc2)nc1-c1cccs1`, for which the half-maximal inhibitory concentration (IC50) result at Neutrophil elastase is listed as “ND(Insoluble)”.

Consider `c1ccc(-c2noc(CSc3nnc(Cc4cccs4)n3-c3ccccc3)n2)cc1`, for which the IC50 result against Neutrophil elastase is listed as “ND(Insoluble)”.

For the compound `COc1ccc(-n2c(COc3ccc4ccccc4c3)nnc2SCC(=O)O)cc1`, at Neutrophil elastase (read-out: IC50), the half-inhibitory concentration (IC50) was over 100 µM.

Turning to `COc1ccc(C(=O)CSc2nnc(COc3ccccc3)n2Cc2ccco2)cc1`, the half-maximal inhibitory concentration (IC50) entry against Neutrophil elastase is given as “ND(Insoluble)”.

`O=C(CSc1nc2ccccc2n1Cc1ccccc1F)NCc1ccc2c(c1)OCO2`: the IC50 entry against Neutrophil elastase was “ND(Insoluble)”.

As for `NC(=O)CSc1nnc2c3c4c(sc3nc(SCc3ccccc3)n12)CCCC4`, the IC50 result on Neutrophil elastase is reported as “ND(Insoluble)”.

Regarding `C=CCn1c(Cc2ccccc2)nnc1SCC(=O)Nc1nc(-c2ccccc2)cs1`, at Neutrophil elastase, the 50% inhibitory concentration (IC50) entry was “ND(Insoluble)”.

In the case of `C=CCn1c(=O)c2ccccc2n2c(SCC(=O)NCc3cccs3)nnc12`, at Neutrophil elastase, the IC50 result is “ND(Insoluble)”.

Broadly, the IC50 is the concentration at which inhibition is half-maximal.
